US7629310B2, “RhoB as a suppressor of cancer cell growth, cell transformation, and metastasis” (University of South Florida, priority 2000, dated 2009)
Values joined by “and” are separate entries in the source; they are usually repeats but may differ in a detail not shown here. Identical values can stand only once.

Key:
[1] = tested on: A-549 cells; assay: Cell proliferation, A-549; assay type: cell-based, human; conditions: A-549, 0-96 hours
Description: (§1) Cell Proliferation. Cells were collected and examined for cell number by trypan blue exclusion and hemocytometer counting under microscope at 0 h, 24 h, 48 h, 72 h and 96 h. All the samples were performed in triplicate and the averages of 3 independent experiments were reported.

[2] = tested on: A-549 cells; assay: Anoikis assay in A-549 cells; assay type: cell-based, human; conditions: A-549, poly-HEMA plates, 24 hr; control 40%
Description: (§2) Anoikis Assay. Cells were collected by trypsinization, washed twice with PBS, and re-suspended in serum-free medium containing 0.5% BSA; 5.0×10^5 cells were then seeded in triplicates into 60-mm plates pre-coated with poly(2-hydroxyethylmethacrylate) (poly-HEMA, SIGMA) according to the data sheet of the agents. 24 hrs later the cellular viability was determined by trypan blue exclusion.

[3] = tested on: H-Ras/NIH3T3 cells; assay: 5-FU-induced apoptosis (Annexin V, flow cytometry) in H-Ras-transformed NIH3T3 cells; assay type: cell-based
Description: (§3) Apoptosis Assay. Cells were collected by trypsinization, washed in wash buffer and stained with Annexin V and 7-AAD according to manufacturer's recommendation (PharMingen, San Diego, Calif.). Data acquisition and analysis was performed by the Flow Cytometry Core Facility at the H. Lee Moffitt Cancer Center (Tampa, Fla.). All the samples were performed in duplicate and a representative of 3 independent experiments were reported here.

[4] = tested on: H-Ras/NIH3T3 cells; assay: Anoikis assay in H-Ras-transformed NIH3T3 cells; assay type: cell-based; conditions: H-Ras-transformed NIH3T3, poly-HEMA plates
Description: as §2

[5] = tested on: H-Ras/3T3 cells; assay: Migration through collagen type I coated transfilters, H-Ras/3T3 cells; assay type: cell-based; conditions: H-Ras/3T3 cells (FIG. 8B)
Description: Parental NIH3T3 (FIG. 8A) were transiently transfected with pcDNA3 vector control, H-Ras61L, CA-PI3K, or CA-Akt in the presence or absence of RhoA or RhoB or pcDNA3 for 36 hours. The cells were then split and cultured for another 4 weeks. The plates were examined for focus formation by staining. H-Ras/3T3 cells (FIG. 8B) and PANC-1 cells (FIG. 8C) were transiently transfected with pcDNA3 vector control, CA-Akt, or WT-Akt in the presence or absence of RhoA, RhoB, or pcDNA3 for 36 hours. The cells were then split and analyzed for their migration capabilities through collagen type I coated transfilters as described in the Materials and Methods section. NIH3T3 cells (FIGS. 8D and 8E) were transiently transfected with pcDNA3 vector control, H-Ras61L, CA-Akt, or WT-Akt in the presence or absence of RhoA, RhoB, or pcDNA3 for 36 hours. The monolayers were then scratched with a 20 μl pipette tip and micro-photographed at the time points indicated for analyzing their capability to migrate into and fill the wounded area.

[6] = tested on: A-549 cells; assay: Focus/colony formation of A-549 cells in G418 medium; assay type: cell-based, human; conditions: transfected A-549 cells, 3 weeks
Description: (§4) Focus Formation Assay. NIH3T3 cells were seeded into 60-mm plates (1×10^6 cell/per plate) one day prior to gene transfection. […] Two days after transfection, the cells were seeded into 60-mm plates at a density of 2.5×10^3/per plate, and maintained in DMEM medium containing 1.5% CBS. The medium was changed every 3 days. 3-4 weeks later the cells were washed once with PBS and once with PBS/methanol (1:1), then washed with fresh anhydrous methanol and covered with crystal violet stain for 1 min at room temperature. Finally, the stain was displaced with water. The focus formation assay for A-549 cells was similarly performed as above except that following the transfection the cells were cultured in DMEM complete medium containing 400 μg/ml of geneticin (G418, […], Inc.). 3 weeks later, the cells were fixed with anhydrous methanol and stained with crystal violet; the plates were photographed. All the samples were performed in triplicate and a representative of 3 independent experiments was reported in the figure(s) and averages±standard deviation reported in the table.

[7] = tested on: NIH3T3 cells; assay: Focus formation assay in oncogene-transfected NIH3T3 cells; assay type: cell-based; set-up: inhibition of focus formation: concentration or dose not given beside the values; conditions: for # of foci formed: 4 weeks
Description: as §4

[8] = tested on: NIH3T3 cells; assay: Anchorage-independent growth (soft agar) assay in NIH3T3 cells; assay type: cell-based; conditions: 5 weeks
Description: Anchorage-independent Growth Assay. NIH3T3 cells were similarly transfected as above. The cells were trypsinized, and 2.5×10^3 cells were suspended in triplicate in top soft agar layer (DMEM complete medium containing 0.35% agar) and seeded into 60-mm plates pre-coated by a 3-mm layer of lower agar (DMEM complete medium containing 0.7% agar). The cells were fed every 5 days for 5-6 weeks and finally stained with MTT (SIGMA). All the experiments were performed in triplicate and a representative of 3 independent experiments was reported in the figure(s) and averages±standard deviation in the table.

[9] = tested on: NIH3T3 cells; assay: 5-FU-induced apoptosis (Annexin V, flow cytometry) in NIH3T3 cells; assay type: cell-based; conditions: for 5-FU apoptotic rate after transfection: NIH3T3, transfected 24 hours then 5-FU 48 hours (FIG. 10A), control 28-30%; for percent of apoptosis induced by 5-FU after transfection: parental NIH3T3, transfected 24 hrs then 5-FU 48 hrs, control 28%
Description: as §3

[10] = tested on: H-Ras/NIH3T3 cells; assay: Cell proliferation, H-Ras-transformed NIH3T3; assay type: cell-based; conditions: H-Ras-transformed NIH3T3, 0-96 hours
Description: as §1

Compound | growth rate [1] | cell death on deprivation of substratum attachment (anoikis) [2] | anoikis [4] | ability to migrate through collagen type I [5] | number of colonies [6] | # of foci formed ([7]; oncogene transfected: EGFR) | # of foci formed ([7]; oncogene transfected: ErbB2) | # of foci formed ([7]; oncogene transfected: H-Ras) | # of foci formed ([7]; oncogene transfected: K-Ras) | # of foci formed ([7]; oncogene transfected: N-Ras) | # of foci formed ([7]; oncogene transfected: v-Src) | # of soft agar colonies ([8]; oncogene: H-Ras) | # of soft agar colonies ([8]; oncogene: K-Ras) | # of soft agar colonies ([8]; oncogene: N-Ras) | 5-FU apoptotic rate after transfection [9] | percent of apoptosis induced by 5-FU after transfection [9] | growth rate [10] | further results
RhoB: low molecular weight GTPase; wild-type RhoB subcloned into HA-tagged pcDNA3 and ectopically expressed by transfection | inhibited the growth rate | 78% | enhanced anoikis | dramatically hindered | 178+/−19 | 17 ± 3 | 19 ± 4 | 18 ± 3 | 16 ± 4 | 22 ± 3 | 26 ± 6 | 21 and 21 ± 3 | 18 and 18 ± 5 | 26 and 26 ± 7 | enhanced | 39% | inhibited the growth rate | percent of apoptosis induced by 5-FU after transfection ([3]; H-Ras-transformed NIH3T3, transfected 24 hrs then 5-FU 48 hrs, control 16%): 37%; colony (focus) formation ([7]; co-transfection with H-Ras61L, CA-PI3K or CA-Akt, 4 weeks (FIG. 8A)): significant inhibition of colony formation; inhibition of focus formation ([7]; focus formation by EGFR): 56%; inhibition of focus formation ([7]; focus formation by ErbB2): 59%; inhibition of focus formation ([7]; focus formation by H-Ras): 62%; inhibition of focus formation ([7]; focus formation by K-Ras): 61%; inhibition of focus formation ([7]; focus formation by N-Ras): 39%; inhibition of focus formation ([7]; v-Src transformation): 15%
RhoA: closely related family member sharing 86% sequence identity with RhoB; wild-type, in HA-tagged pcDNA3, transfected as control | enhanced the rate of growth | protected these cells from anoikis | slightly protected from anoikis | migrated | 593+/−43 | 47 ± 7 | 61 ± 11 | 63 ± 11 | 71 ± 13 | 46 ± 8 | 35 ± 7 | 77 and 77 ± 12 | 65 and 65 ± 7 | 89 and 89 ± 14 | slightly protected | no significant effect | enhanced the rate of growth | 
O=c1[nH]cc(F)c(=O)[nH]1 [5-FU, 5-fluorouracil] |  |  |  |  |  |  |  |  |  |  |  |  |  |  |  |  |  | apoptosis ([3]; H-Ras-transformed NIH3T3, 5-FU 2.0 μM 48 hrs (FIG. 4B)): 16-18%; apoptosis ([9]; NIH3T3, 5-FU 48 hours (FIG. 10A)): 28-30%; apoptosis ([9]; parental NIH3T3, 5-FU 2.0 μM 48 hrs (FIG. 4B)): 27-32%
